Assay results: article PMC7044277 (Nature Communications, 2020)
“And” between values parts separate entries of the source, which are not always exact repeats. Identical values can stand only once.

Tests used:
Format in all cases: cell-based
320 non-olfactory GPCRs [1] = molecular target: T1, 320 non-olfactory GPCRs (Homo sapiens, UniProt P43116); conditions: receptor PTGER2; replicate values, Fig_4g
T1 construct: expressed in transfected cells; host or cells: HTLA cells

320 non-olfactory GPCRs [2] = molecular target: T2, 320 non-olfactory GPCRs (Homo sapiens, UniProt O00574)
T2 construct: expressed in transfected cells; host or cells: HTLA cells
T2 sequence (O00574 whole entry): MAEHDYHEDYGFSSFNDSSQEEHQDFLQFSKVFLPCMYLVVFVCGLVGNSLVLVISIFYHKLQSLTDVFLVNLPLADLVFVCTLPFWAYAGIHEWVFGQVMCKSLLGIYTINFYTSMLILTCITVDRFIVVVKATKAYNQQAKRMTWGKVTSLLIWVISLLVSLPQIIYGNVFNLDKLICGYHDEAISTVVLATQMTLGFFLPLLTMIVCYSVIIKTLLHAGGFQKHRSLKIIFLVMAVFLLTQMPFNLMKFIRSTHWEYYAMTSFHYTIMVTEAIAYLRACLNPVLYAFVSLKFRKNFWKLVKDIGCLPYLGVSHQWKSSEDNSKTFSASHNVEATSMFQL

320 non-olfactory GPCRs [3] = molecular target: 320 non-olfactory GPCRs (Homo sapiens, UniProt P21917)
320 non-olfactory GPCRs (Homo sapiens, UniProt P21917), sequence (P21917 whole entry): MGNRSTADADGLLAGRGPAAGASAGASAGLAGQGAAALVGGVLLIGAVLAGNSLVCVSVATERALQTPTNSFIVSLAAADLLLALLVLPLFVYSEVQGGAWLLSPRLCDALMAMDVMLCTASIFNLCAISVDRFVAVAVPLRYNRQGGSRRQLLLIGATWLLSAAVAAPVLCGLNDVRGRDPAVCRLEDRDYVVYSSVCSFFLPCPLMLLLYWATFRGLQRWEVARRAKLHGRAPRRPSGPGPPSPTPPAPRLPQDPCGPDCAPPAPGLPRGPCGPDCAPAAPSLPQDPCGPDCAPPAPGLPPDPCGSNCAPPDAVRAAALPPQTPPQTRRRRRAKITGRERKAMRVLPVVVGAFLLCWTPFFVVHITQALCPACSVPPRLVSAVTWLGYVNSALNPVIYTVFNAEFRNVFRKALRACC

320 non-olfactory GPCRs [4] = molecular target: 320 non-olfactory GPCRs (Homo sapiens, UniProt P30542)
320 non-olfactory GPCRs (Homo sapiens, UniProt P30542), sequence (P30542 whole entry): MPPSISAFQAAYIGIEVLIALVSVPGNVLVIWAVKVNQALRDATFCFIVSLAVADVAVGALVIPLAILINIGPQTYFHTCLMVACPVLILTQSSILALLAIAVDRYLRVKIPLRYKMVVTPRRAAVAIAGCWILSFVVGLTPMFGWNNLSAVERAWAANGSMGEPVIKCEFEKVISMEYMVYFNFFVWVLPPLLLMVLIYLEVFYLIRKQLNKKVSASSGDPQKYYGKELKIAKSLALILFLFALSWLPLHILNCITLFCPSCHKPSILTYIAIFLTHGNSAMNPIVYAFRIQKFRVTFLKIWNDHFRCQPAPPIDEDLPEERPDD
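Throughout, for Fold of Basal: compound tested at 1 µM final concentration.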
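Throughout, for GPCRome agonism screen response: fold over basal response of each receptor without drug.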

T1 sequence (P43116 whole entry): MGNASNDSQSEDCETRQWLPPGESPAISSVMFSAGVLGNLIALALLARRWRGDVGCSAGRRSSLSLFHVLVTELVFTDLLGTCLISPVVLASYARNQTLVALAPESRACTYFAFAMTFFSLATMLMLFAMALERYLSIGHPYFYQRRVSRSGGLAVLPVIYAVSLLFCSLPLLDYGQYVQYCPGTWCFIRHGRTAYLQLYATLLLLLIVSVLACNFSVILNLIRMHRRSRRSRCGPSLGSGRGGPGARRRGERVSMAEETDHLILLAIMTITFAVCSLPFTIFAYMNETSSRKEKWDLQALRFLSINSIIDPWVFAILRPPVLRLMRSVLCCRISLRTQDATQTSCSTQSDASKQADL

Structure (SMILES): CCOc1cccc2cc(C(C)NCC3(O)CCCCC3)oc12 (stereo not shown) [O4LE6]
- GPCRome agonism screen response (320 non-olfactory GPCRs [1]): 0.6203 and 0.7336 and 1.113 and 1.811
- Fold of Basal (320 non-olfactory GPCRs [2]): 0.9849 and 0.6404 and 1.204 and 0.796
- Fold of Basal (320 non-olfactory GPCRs [3]): 1.429 and 1.1388 and 0.8668 and 1.288
- Fold of Basal (320 non-olfactory GPCRs [4]): 0.6117 and 1.0436 and 0.9318 and 0.9525
